ChEMBL document CHEMBL1201862, “PubChem BioAssay data set” (2004)
Values belong to the molecule of their own block, whether it stands above or below them. Active and inactive are the calls of the source.

Assays:
[1] = target: T1, High affinity choline transporter 1 (Homo sapiens, UniProt Q9GZV3); assay: CHT inhibitors, dose response, cell-based, 5-point CRC, membrane potential dye (AID 504840); assay type: functional
T1 sequence (Q9GZV3 whole entry): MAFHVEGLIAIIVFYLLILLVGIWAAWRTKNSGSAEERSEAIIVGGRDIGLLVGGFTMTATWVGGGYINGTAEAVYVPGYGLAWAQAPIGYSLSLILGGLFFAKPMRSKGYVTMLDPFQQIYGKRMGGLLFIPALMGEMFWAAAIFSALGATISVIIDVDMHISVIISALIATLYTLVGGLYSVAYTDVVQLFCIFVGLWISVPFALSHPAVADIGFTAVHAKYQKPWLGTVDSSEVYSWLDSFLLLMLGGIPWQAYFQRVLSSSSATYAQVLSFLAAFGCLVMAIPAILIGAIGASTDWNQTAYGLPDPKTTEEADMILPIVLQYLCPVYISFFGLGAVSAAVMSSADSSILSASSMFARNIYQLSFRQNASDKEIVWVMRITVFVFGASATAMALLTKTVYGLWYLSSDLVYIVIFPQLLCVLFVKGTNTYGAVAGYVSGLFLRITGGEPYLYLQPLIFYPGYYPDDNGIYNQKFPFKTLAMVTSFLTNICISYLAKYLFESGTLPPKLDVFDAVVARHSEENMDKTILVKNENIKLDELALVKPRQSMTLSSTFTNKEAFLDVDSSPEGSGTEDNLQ

[2] = target: Heat shock protein HSP 90-alpha (Homo sapiens, UniProt P07900); assay type: functional, organism-based
[3] = target: T2, Carboxy-terminal domain RNA polymerase II polypeptide A small phosphatase 1 (Homo sapiens, UniProt Q9GZU7); assay: inhibitors of CTDSP1, concentration-response testing, biochemical assay, absorbance-based, actives from ultra-high-throughput screening (AID 540297); assay type: functional
T2 sequence (Q9GZU7 whole entry): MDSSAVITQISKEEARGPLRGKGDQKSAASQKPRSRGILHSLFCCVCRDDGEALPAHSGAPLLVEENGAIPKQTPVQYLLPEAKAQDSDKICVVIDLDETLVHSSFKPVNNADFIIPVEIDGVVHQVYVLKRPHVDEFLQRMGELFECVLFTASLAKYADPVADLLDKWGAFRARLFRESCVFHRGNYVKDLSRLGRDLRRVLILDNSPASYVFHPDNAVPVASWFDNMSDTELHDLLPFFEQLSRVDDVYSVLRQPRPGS

BJ [4] = assay: cytotoxicity toward Ras-transformed BJeLR fibroblasts, dose response, cell-based, alamar blue fluorescence, cherrypicked samples (AID 2631); assay type: functional; conditions: Homo sapiens;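 note: confirmatory dose-response assay in RAS-dependent BJ fibroblasts engineered with TERT, LT and ST, with cytotoxicity read by fluorescence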
BJ [5] = assay: cytotoxicity toward BJ-TERT fibroblasts, dose response, cell-based, RAS-independent, luminescence (AID 1933); assay type: functional; conditions: Homo sapiens
[6] = cytotoxicity in HEK-293T cells, dose response, cytotoxicity control for TCR NF-kB inhibitor project, luminescence, T-cell screen hits (AID 489026); assay type: functional, cell-based;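 note: cells exposed to compound about 14 hours before the viability readout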
[7] = cytotoxicity toward DRD oncogenic fibroblasts, dose response, cell-based, non-viral oncogenic, luminescence (AID 1934); assay type: functional; conditions: Homo sapiens
BJ [8] = assay: cytotoxicity toward BJ-TERT-LT-ST fibroblasts, dose response, cell-based, RAS-independent, luminescence (AID 1935); assay type: functional; conditions: Homo sapiens;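 note: BJ fibroblasts immortalized with TERT plus LT and ST oncogenes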
BJ [9] = assay: cells; assay type: functional, cell-based; conditions: Homo sapiens
[10] = Luminescence Cell-Based Dose Retest to Confirm Inhibitors of Cancer Stem Cells. [Related pubchem assays (depositor defined):AID2717, AID2721]; assay type: functional; conditions: Homo sapiens
[11] = target: T3, DNA repair and recombination protein RAD54-like (Homo sapiens, UniProt Q92698); assay: inhibitors of human RAD54 branch migration, confirmation, biochemical, fluorescence, cherry-picked samples, dose series (AID 651657); assay type: functional
T3 sequence (Q92698 whole entry): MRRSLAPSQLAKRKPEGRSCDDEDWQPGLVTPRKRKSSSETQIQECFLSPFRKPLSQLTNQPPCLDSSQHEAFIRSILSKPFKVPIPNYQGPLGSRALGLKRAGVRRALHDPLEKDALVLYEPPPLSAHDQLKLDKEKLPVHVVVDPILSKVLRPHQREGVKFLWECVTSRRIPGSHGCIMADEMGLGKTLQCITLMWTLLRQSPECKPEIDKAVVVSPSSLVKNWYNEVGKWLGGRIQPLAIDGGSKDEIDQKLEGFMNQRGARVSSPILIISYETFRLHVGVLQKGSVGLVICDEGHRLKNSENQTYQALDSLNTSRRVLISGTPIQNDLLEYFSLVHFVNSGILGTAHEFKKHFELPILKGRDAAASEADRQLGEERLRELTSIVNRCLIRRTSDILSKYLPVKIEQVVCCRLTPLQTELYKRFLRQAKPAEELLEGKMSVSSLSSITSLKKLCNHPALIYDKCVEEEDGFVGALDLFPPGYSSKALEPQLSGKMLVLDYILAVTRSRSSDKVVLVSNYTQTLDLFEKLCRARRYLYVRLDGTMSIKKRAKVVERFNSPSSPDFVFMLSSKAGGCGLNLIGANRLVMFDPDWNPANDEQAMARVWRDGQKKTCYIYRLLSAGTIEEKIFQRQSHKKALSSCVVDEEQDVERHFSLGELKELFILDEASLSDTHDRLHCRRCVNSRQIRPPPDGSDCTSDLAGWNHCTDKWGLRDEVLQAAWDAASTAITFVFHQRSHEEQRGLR

[12] = target: T4, Mannose-6-phosphate isomerase (Homo sapiens, UniProt P34949); assay: human PMI inhibitors, high substrate, primary screen, biochemical, fluorescence intensity, high mannose 6-phosphate (AID 1220)
T4 sequence (P34949 whole entry): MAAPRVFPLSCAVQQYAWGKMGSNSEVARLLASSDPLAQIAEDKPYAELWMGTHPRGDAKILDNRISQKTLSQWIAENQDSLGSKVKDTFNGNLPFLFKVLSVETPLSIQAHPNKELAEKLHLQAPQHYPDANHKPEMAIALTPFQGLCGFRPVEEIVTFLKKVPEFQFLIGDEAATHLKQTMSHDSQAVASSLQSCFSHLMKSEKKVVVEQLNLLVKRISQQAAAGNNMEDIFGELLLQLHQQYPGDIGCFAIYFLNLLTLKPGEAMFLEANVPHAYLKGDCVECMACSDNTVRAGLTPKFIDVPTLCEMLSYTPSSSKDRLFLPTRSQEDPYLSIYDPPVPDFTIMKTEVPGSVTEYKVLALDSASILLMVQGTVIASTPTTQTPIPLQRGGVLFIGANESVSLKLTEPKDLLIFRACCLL

[13] = target: Induced myeloid leukemia cell differentiation protein Mcl-1 (Homo sapiens, UniProt Q07820); assay type: functional
Induced myeloid leukemia cell differentiation protein Mcl-1, sequence (Q07820 whole entry): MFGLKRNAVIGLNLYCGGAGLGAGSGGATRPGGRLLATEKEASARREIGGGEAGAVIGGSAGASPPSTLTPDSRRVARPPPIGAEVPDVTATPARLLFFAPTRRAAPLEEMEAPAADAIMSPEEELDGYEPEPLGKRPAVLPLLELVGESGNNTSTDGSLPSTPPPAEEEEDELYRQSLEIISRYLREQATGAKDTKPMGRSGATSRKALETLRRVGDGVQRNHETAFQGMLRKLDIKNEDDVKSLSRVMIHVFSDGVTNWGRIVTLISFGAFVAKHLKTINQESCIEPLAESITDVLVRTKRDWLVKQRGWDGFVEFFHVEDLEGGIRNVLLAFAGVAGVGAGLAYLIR

IC50 [1]: 12.6 µM (active)
SMILES: Cc1ccc(NC(S)=NNC(=O)c2cccc([N+](=O)[O-])c2)cc1Cl

AC50 [2]: 4.35 µM (active)
SMILES: CCc1ccccc1NC(=O)c1cccc(Oc2ccc([N+](=O)[O-])cc2Cl)c1

IC50 [3]: 11.7 µM (active)
SMILES: Cc1ccc(NC(=O)/C=C/c2ccco2)nc1

IC50 [1]: 12.6 µM (active)
SMILES: CCOC(=O)c1c(NC(=O)CCN2C(=O)c3cccc([N+](=O)[O-])c3C2=O)sc(C(=O)OC(C)C)c1C

SMILES: Cc1cc(C)cc(NS(=O)(=O)c2ccc(-c3cnc(C4CC4)o3)cc2)c1
EC50 (BJ [4]): < 0.104 µM (active) | EC50 (BJ [5]): 0.346 µM (active) | IC50 [6]: > 80 µM (inactive) | EC50 [7]: 0.525 µM (active) | EC50 (BJ [8]): 0.521 µM (inconclusive) | EC50 (BJ [9]): 26.2 µM (active)

SMILES: O=C(NCCCSc1ccccc1)c1cc(Br)ccc1O
AC50 [10]: 3.38 µM (active) | AC50 [2]: 4.6 µM (active)

AC50 [11]: 57.7 µM (active)
SMILES: Cc1nnc2c(N3CCN(CCO)CC3)nc3ccccc3n12

IC50 [12]: > 50 µM (not active)
SMILES: Cc1c(CN2CCCCC2)c(O)n(CCO)c(=O)c1C#N

AC50 [11]: 32.4 µM (active)
SMILES: CCCNc1nc2nc3ccccn3c(=O)c2cc1C(=O)NCCN1CCOCC1

IC50 [13]: 5.25 µM (active)
SMILES: CCOC(=O)C1CCCN(c2ccc(NC(=O)c3snc4c(=O)[nH]c(C)nc34)cc2)C1 (stereo not drawn)

IC50 [1]: 11.5 µM (active)
SMILES: CN(Cc1ccccc1)C(=O)CN1CCN(C(c2ccccc2)c2ccccc2)CC1

IC50 [13]: 4.58 µM (not active)
SMILES: CC(=O)N1CCc2cc(S(=O)(=O)NC(Cc3ccccc3)C(=O)NC3CCCCCC3)ccc21 (stereo not drawn)
